We go through two compounds from ChEMBL document CHEMBL1147219, “Hyperatomarin, an antibacterial prenylated phloroglucinol from Hypericumatomarium ssp. degenii” (2003).

Common to all, as to type: functional
One experiment concerns Bacillus. As to the kind of experiment: Antibacterial activity against Bacillus IP 5832 after 24 hrs by agar dilution method.
The test system of the next experiment is Staphylococcus aureus. As to the kind of experiment: Antibacterial activity against Staphylococcus aureus ATCC 25923 after 24 hrs by agar dilution method. To be noted: ATCC 25923, 24 h. Background: In agar dilution, organisms are placed on agar that contains the substance at set levels.
Another experiment concerns Micrococcus luteus. As to the kind of experiment: Antibacterial activity against Micrococcus luteus ATCC 4698 after 24 hrs by agar dilution method. To be noted: ATCC 4698, 24 h.
The test system of the next experiment is Bacillus subtilis. As to the kind of experiment: Antibacterial activity against Bacillus subtilis ATCC 6633 after 24 hrs by agar dilution method. To be noted: ATCC 6633, 24 h.

≈ marks a conversion by molar mass, not a printed value.

For orientation: MIC means the least concentration at which growth counts as inhibited. Regarding `CC[C@H]1OC(=O)[C@H](C)[C@@H](O[C@H]2C[C@@](C)(OC)[C@@H](O)[C@H](C)O2)[C@H](C)[C@@H](O[C@@H]2O[C@H](C)C[C@H](N(C)C)[C@H]2O)[C@](C)(O)C[C@@H](C)C(=O)[C@H](C)[C@@H](O)[C@]1(C)O` [ERYTHROMYCIN], the MIC in the experiment with Bacillus turned out to be 0.39 µg/mL (≈ 0.531 µM); in the experiment on Staphylococcus aureus, 0.2 µg/mL (≈ 0.273 µM); in the experiment with Micrococcus luteus, 0.2 µg/mL (≈ 0.273 µM); in the experiment on Bacillus subtilis, 0.39 µg/mL (≈ 0.531 µM).
With `CC(C)=CCC[C@@]1(C)[C@H](CC=C(C)C)C[C@@H]2C(=O)C(C(=O)C(C)C)=C(O)[C@H]1C2=O` [HYPERATOMARIN], the MIC was determined as 1.56 µg/mL (≈ 3.89 µM) in the experiment with Bacillus, 1.56 µg/mL (≈ 3.89 µM) against Staphylococcus aureus, 1.56 µg/mL (≈ 3.89 µM) with Micrococcus luteus and 3.12 µg/mL (≈ 7.79 µM) against Bacillus subtilis.
